In PMC11574021, “CEP192 localises mitotic Aurora-A activity by priming its interaction with TPX2” (The EMBO Journal, 2024):

These compounds were tested on Aurora-A-pT288 in U251 cells (assay: Immunofluorescence, Aurora-A-pT288 spindle pole signal intensity, U251). Conditions: U251, siRNA 48 h or Aurora-A inhibitor 30 min (250 nM).
Assay type: cell-based, Homo sapiens
Protocol: Drugs were resuspended in DMSO to the stock concentrations indicated in square brackets.
For immunofluorescence, 1 × 10^5 cells were seeded in six-well plates and simultaneously transfected with 60 pmol siRNA duplex and 3 µl transfection reagent diluted in 200 µl Opti-MEM serum-free medium. Growth medium was added to a final volume of 2 ml. For western blotting, 1 × 10^6 cells were seeded in 10 cm dishes and transfected with 300 pmol siRNA duplex and 15 µl transfection reagent diluted in 1000 µl Opti-MEM. Growth medium was added to a final volume of 10 ml. Cells were incubated with siRNA for 48 h prior to fixation or harvesting. As a negative control (siControl) Silencer select negative control No.1 siRNA was transfected as above. For TACC3 depletion, where two siRNA duplexes were used, 40 pmol of each was transfected per well.
For siRNA depletion, 1 × 10^5 cells were seeded in six-well plates and transfected as described above for 48 h prior to fixation. For all other experiments, 2.5 × 10^5 cells were seeded in six-well plates and grown for 24 h before fixation. […] Cells in Fig. EV4A were fixed using 4% (wt/v) paraformaldehyde (PFA) in PBS for 12 min, followed by 10 min quenching in 50 mM NH4Cl in PBS and 5 min of permeabilization with 0.2% (v/v) Triton X-100 in PBS, all at room temperature. For centriole staining in Fig. EV4E, cells were fixed in pre-chilled methanol for 10 min at −20 °C, incubated in PBS for 10 min and then 5 min in 0.5% Triton-X-100, 0.5% Tween, 0.05% SDS in PBS (v/v). […]
Here “area” refers to the area of DAPI-stained DNA, determined by thresholding (default mode) the region of interest. […] The diameter calculated, therefore, refers to that of a circle with equivalent area to the DAPI signal measured previously. The area of the nuclear DAPI signal (Appendix Fig. S6I) was determined by thresholding (as above). […] All fluorescence intensity and area measurements were obtained from maximum intensity z-projections. […]
For 5′-CGGUAGUGAUAAAAGCUCAtt-3′ [siTPX2], the “centrosomal/spindle pole Aurora-A-pT288 signal” value was “diminished the intensity of pT288 signal”. `COc1cc(Nc2ncc3c(n2)-c2ccc(Cl)cc2C(c2c(F)cccc2OC)=NC3)ccc1C(=O)O` [Alisertib] was tested, and the “centrosomal/spindle pole Aurora-A-pT288 signal” value was “obliterated”. 5′-CAAACAACUUGGAAAUCGAtt-3′ [siCEP192] was tested, and the “centrosomal/spindle pole Aurora-A-pT288 signal” value was “diminished the intensity of pT288 signal”.
